Source: PMC5732813, “Novel piplartine-containing ruthenium complexes: synthesis, cell growth inhibition, apoptosis induction and ROS production on HCT116 cells” (Oncotarget, 2017)
Where “and” joins values, the source holds several entries; their conditions need not be identical. Identical values can stand only once.

Assays:
Format in all cases: cell-based
[1] = system: BAD KO SV40 MEF (BAD gene knockout immortalized mouse embryonic fibroblast); test: Cytotoxic activity, alamar blue assay, BAD KO SV40 MEF; conditions: Mus musculus, Fibroblast; BAD KO SV40 MEF, 72 h incubation, alamar blue; read-out: IC50
Text: (§1) HCT116 (human colon carcinoma), HepG2 (human hepatocellular carcinoma), HSC-3 (human oral squamous cell carcinoma), SCC-4 (human oral squamous cell carcinoma), SCC-9 (human oral squamous cell carcinoma), HL-60 (human promyelocytic leukemia), K-562 (human chronic myelogenous leukemia), B16-F10 (murine melanoma), MRC-5 (human lung fibroblast), WT SV40 MEF (wild-type immortalized mouse embryonic fibroblast) and BAD KO SV40 MEF (BAD gene knockout immortalized mouse embryonic fibroblast) cell lines were obtained from the American Type Culture Collection (ATCC, Manassas, VA, USA) and cultured in RPMI-1640 medium (Gibco-BRL, Gaithersburg, MD, USA) with 10% fetal bovine serum (Life, Carlsbad, CA, USA), 2 mM L-glutamine (Vetec Química Fina, Duque de Caxias, RJ, Brazil) and 50 μg/mL gentamycin (Life, Carlsbad, CA, USA). Adherent cells were collected by treatment with 0.25% trypsin EDTA solution (Gibco-BRL, Gaithersburg, MD, USA). All cell lines were cultured in flasks at 37°C in 5% CO2 and sub-cultured every 3-4 days to maintain exponential growth.
(§2) Cell viability was quantified using the alamar blue assay, according to Ahmed et al.. Cells were inserted in 96-well plates for all experiments (7 x 10^4 cells/mL for adherent cells or 3 x 10^5 cells/mL for suspended cells in 100 μL of medium). […] Negative controls received the vehicle that was used for diluting the compounds tested.

[2] = system: WT SV40 MEF (wild-type immortalized mouse embryonic fibroblast); test: Cytotoxic activity, alamar blue assay, WT SV40 MEF; conditions: Mus musculus, Fibroblast; WT SV40 MEF, 72 h incubation, alamar blue; read-out: IC50
Text: as §1, §2

HCT116 cells = test: Gene expression analysis by qPCR array (TaqMan Array Human Molecular Mechanisms of Cancer); conditions: HCT116, 12 h, DOX 1 μM, PL 10 μM, 1 2.5 μM, 2 5 μM, negative control RQ = 1.0
Protocol: HCT116 cells were plated in bottles tissue culture (7x10^4 cells/mL). After 12h of incubation with the complexes, total RNA was isolated from the cells using the RNeasy Plus mini kit (Qiagen, Hilden, Germany) according to the manufacturer’s instructions. The RNA was evaluated by fluorimetry (QuBit™, Life Technologies, Camarillo, CA, EUA). RNA reverse transcription was performed using Superscript VILO™ (Invitrogen Corporation, Waltham, MA, USA). A 96-well plate TaqMan® Array Human Molecular Mechanisms of Cancer (ID 4418806, Applied Biosystems™, Foster City, CA, EUA) was used for the gene expression study by qPCR. The reactions were conducted in the ABI ViiA7 (Applied Biosystems™, Foster City, CA, EUA). The cycle conditions comprised 2 min at 50 °C, 20 s at 95 °C, then 40 cycles of 3 s at 95 °C and 30 s at 60 °C. […] The GAPDH, 18S and HPRT1 genes were used for normalization. All experiments were performed in DNase/RNase free conditions.

[3] = system: SCC-9 (human oral squamous cell carcinoma); test: Cytotoxic activity, alamar blue assay, SCC-9; conditions: Homo sapiens; SCC-9, 72h of incubation, alamar blue; with 95% confidence interval
Text: as §1, §2

## COc1cccc2c1C(=O)c1c(O)c3c(c(O)c1C2=O)C[C@@](O)(C(=O)CO)C[C@@H]3O[C@H]1C[C@H](N)[C@H](O)[C@H](C)O1 [Doxorubicin]
[1]
  IC50: 410 nM
[2]
  IC50: 40 nM
HCT116 cells
  RQ ABL1: 0.912
  RQ AKT1: 1.840
  RQ AKT2: 3.877
  RQ APC: 0.908
  RQ BAX: 3.274
  RQ BCAR1: 1.809
  RQ BCL2L1: 2.391
  RQ BCL2L11: 1.152
  RQ BID: 1.757
  RQ BRAF: 0.513
  RQ CASP9: 0.530
  RQ CCND3: 1.438
  RQ CCNE1: 0.894
  RQ CDC42: 1.271
  RQ CDK2: 1.257
  RQ CDK4: 0.983
  RQ CDKN1A: 2.853
  RQ CDKN1B: 0.766
  RQ CRK: 0.867
  RQ CTNNB1: 0.939
  RQ DVL1: 1.252
  RQ E2F1: 1.018
  RQ ELK1: 1.263
  RQ ERBB2: 2.605
  RQ FAS: 2.372
  RQ FGF2: 0.625
  RQ GRB2: 0.761
  RQ GSK3B: 1.342
  RQ GUSB: 5.0
  RQ HRAS: 0.691
  RQ ITGB1: 0.489
  RQ ITGB3: 5.579
  RQ KRAS: 0.951
  RQ MAPK1: 0.903
  RQ MAPK8: 1.185
  RQ MAPK14: 0.786
  RQ MDM2: 1.479
  RQ MYC: 0.876
  RQ NFKB1: 0.784
  RQ NFKB2: 1.250
  RQ NRAS: 0.556
  RQ PIK3CA: 0.409
  RQ RB1: 0.532
  RQ RELA: 0.862
  RQ RHOA: 0.900
  RQ SRC: 1.383
  RQ TCF3: 1.135
  RQ TGFB1: 0.495
  RQ TGFBR1: 1.216
  RQ VEGFA: 0.610
HCT116 cells; listed as DOX
  RQ BCL2: 3.1 and 3.090
  RQ CCND1: 1.1 and 1.124
  RQ CDH1: 7.1 and 7.107
  RQ CDKN2A: 1.8 and 1.793
  RQ CYCS: 1.0 and 0.993
  RQ EGFR: 0.8 and 0.831
  RQ FADD: 1.1 and 1.049
  RQ FN1: 3.6 and 3.575
  RQ FOS: 11.8 and 11.834
  RQ FYN: 1.3 and 1.248
  RQ FZD1: 1.0 and 0.994
  RQ IGF1R: 1.4 and 1.389
  RQ ITGA2B: 4.5 and 4.514
  RQ ITGAV: 1.3 and 1.265
  RQ JUN: 4.1 and 4.073
  RQ MAP2K1: 0.7 and 0.681
  RQ MAP3K5: 1.0 and 1.006
  RQ MAPK3: 2.8 and 2.758
  RQ NFKBIA: 2.3 and 2.326
  RQ PIK3R1: 2.0 and 1.999
  RQ PTEN: 1.8 and 1.750
  RQ PTK2: 1.2 and 1.182
  RQ PTK2B: 3.4 and 3.368
  RQ RAC1: 0.9 and 0.845
  RQ RAF1: 2.0 and 2.027
  RQ SHC1: 0.6 and 0.640
  RQ SMAD4: 1.0 and 0.963
  RQ SOS1: 0.7 and 0.741
  RQ SPP1: 1.2 and 1.165
  RQ TGFBR2: 0.9 and 0.914
  RQ TP53: 3.3 and 3.250
[3]
  IC50: 2600 nM
